{"source": "patent US9447466B2", "about": "(NIPPON ZOKI PHARMACEUTICAL CO., LTD., priority 2010, dated 2016)", "molecules": {"B1": {"name": "BDNF: human recombinant BDNF (Peprotech) given from outside of the cells (protein, UniProt P23560 19-247, looked up)", "Neurotrophic factor BDNF …": "APMKEANIRGQGGLAYPGVRTHGTLESVNGPKAGSRGLTSLADTFEHVIEELLDEDQKVRPNEENNKDADLYTSRVMLSSQVPLEPPLLFLLEEYKNYLDAANMSMRVRRHSDPARRGELSVCDSISEWVTAADKKTAVDMSGGTVTVLEKVPVSKGQLKQYFYETKCNPMGYTKEGCRGIDKRHWNSQCRTTQSYVRALTMDSKKRIGWRFIRIDTSCVCTLTIKRGR"}}, "key": {"[1]": {"system": "ERK1/2", "assay": "Inhibition of phosphorylation of ERK1/2 by MEK1/2 inhibitor", "type": "cell-based"}, "[2]": {"system": "BDNF", "assay": "Pharmacological Test 6: influence of intracellular signaling inhibitors on BDNF expression", "type": "cell-based, human", "details": "SH-SY5Y cells; test substance 10 mNU/mL 24 hours; PD98059 10 μM, LY 294002 15 μM or SB 203580 0.5 μM added 30 minutes before completion; FIG. 7", "protocol": "PD98059 (MEK inhibitor, 10 μM), LY 294002 (PI-3K inhibitor, 15 μM) or SB 203580 (p38 MAPK inhibitor, 0.5 μM) dissolved in a medium was added to a cultured product 30 minutes before completion of the cultivation. After that, the same as in the above Pharmacological Test 1, the extracted total RNA was subjected to a semi-quantitative RT-PCT, the PCR product was separated by agarose gel electrophoresis and the bands of BDNF and cyclophilin were visually detected."}, "[3]": {"system": "BDNF", "assay": "Pharmacological Test 8: influence on TrkB inhibition (BDNF expression, semi-quantitative RT-PCR)", "type": "cell-based, human", "details": "SH-SY5Y cells; test substance 10 mNU/mL 24 hours; K252a 500 nM or αTrkB 20 μg/mL added 30 minutes before completion; FIG. 9", "protocol": "K252a (tyrosine kinase inhibitor, 500 nM) or rabbit IgG of human TrkB-specific antibody (αTrkB, 20 μg/mL) was added to the cultured product 30 minutes before completion of the cultivation. After that, the same as in the above Pharmacological Test 1, the extracted total RNA was subjected to a semi-quantitative RT-PCR, the PCR product was separated by agarose electrophoresis and the bands of BDNF and cyclophilin A were visually detected."}, "[4]": {"system": "CREB", "assay": "Inhibition of phosphorylation of CREB by p38MAPK inhibitor", "type": "cell-based"}, "[5]": {"system": "p42/44MAP kinase (ERK1/2)", "assay": "Pharmacological Test 5: effect to CREB pathway (immuno-blotting), phosphorylated P42/44 MAP kinase", "type": "cell-based", "details": "SH-SY5Y cells; BDNF given from outside of the cells (human recombinant BDNF 50 pg/mL; 10 or 30 minutes)", "source_text": "(§1) Intracellular signaling molecules were detected by an immuno-blotting method using each of various specific antibodies produced to CREB (MAB 5432; Millipore), phosphorylated CREB (P-CREB: Clone 10E9; Millipore), P42/44 MAP kinase (ERK1/2; Cell Signaling Technology), phosphorylated P42/44 MAP kinase (P-MAPK: Tyr202/Tyr204; Cell Signaling Technology) and c-Fos (Gene Tex). […] After that, the cells were scraped off using a cell scraper (BD Bioscience), immediately washed with ice-cooled PBS and subjected to cytolysis according to a method of Mutoh, et al. (Proceedings of the National Academy of Sciences of the United States of America, vol. 92, pages 5087 to 5091, 1995). The cytolyzed product was subjected to an SDS-PAGE electrophoresis of 4 to 20% gel (ePAGEL; Atto Chemicals) and blotted to a PDVF (polyvinylidene fluoride) membrane. After said membrane was subjected to a blocking for 1 hour using Tris buffer physiological saline (TBS; 20 mM Tris-HCl, pH 7.5, 0.15M NaCl) containing 3% fat-free milk and 0.1% Tween 20 (TBS-T), a reaction with the primary antibody and the HRP-labeled secondary antibody was conducted in TBS-T for one hour at room temperature. Immuno-reactive bands of CREB, phosphorylated CREB, P42/44 MAP kinase, phosphorylated P42/44 MAP kinase and c-Fos were visually detected by a detection system by means of […] (ECL; GE Healthcare)."}, "[6]": {"system": "CREB", "assay": "Pharmacological Test 5: effect to CREB pathway (immuno-blotting), phosphorylated CREB", "type": "cell-based", "details": "SH-SY5Y cells; BDNF given from outside of the cells (human recombinant BDNF 50 pg/mL; 10 or 30 minutes)", "source_text": "as §1"}}}
{"molecule": "COc1cccc(-c2cc(=O)c3ccccc3o2)c1N", "note": "[PD98059]", "values": [{"measurement": "phosphorylation of ERK1/2", "setting": "[1]", "value": "inhibited"}, {"measurement": "enhancement of BDNF expression by the test substance in presence of inhibitor", "setting": "[2]", "value": "suppressed"}]}
{"molecule": "COC(=O)[C@@]1(O)C[C@H]2O[C@]1(C)n1c3ccccc3c3c4c(c5c6ccccc6n2c5c31)C(=O)NC4", "note": "[Example K252a]", "values": [{"measurement": "BDNF expression enhanced by the test substance in presence of inhibitor or antibody", "setting": "[3]", "value": "almost completely suppressed"}]}
{"molecule": "C[S+]([O-])c1ccc(-c2nc(-c3ccncc3)c(-c3ccc(F)cc3)[nH]2)cc1", "note": "(stereo not shown) [SB203580]", "values": [{"measurement": "phosphorylation of CREB", "setting": "[4]", "value": "inhibited"}, {"measurement": "enhancement of BDNF expression by the test substance in presence of inhibitor", "setting": "[2]", "value": "suppressed"}]}
{"molecule": "B1", "values": [{"measurement": "phosphorylation of 42/44MAP kinase", "setting": "[5]", "value": "enhanced"}, {"measurement": "phosphorylation of CREB", "setting": "[6]", "value": "enhanced"}]}
